The results in this text go back to patent US9290511B2, “Thieno-pyrimidines, useful as potassium channel inhibitors” (XENTION LIMITED, priority 2011, dated 2016).

In general, IC50 refers to the point on the concentration scale where inhibition reaches its midpoint.

The assay has as its target T1, Kir3.1/3.4 (Rattus norvegicus, UniProt P48548+P63251).
T1 construct: expressed in transfected cells
T1 sequence (P63251 1-501): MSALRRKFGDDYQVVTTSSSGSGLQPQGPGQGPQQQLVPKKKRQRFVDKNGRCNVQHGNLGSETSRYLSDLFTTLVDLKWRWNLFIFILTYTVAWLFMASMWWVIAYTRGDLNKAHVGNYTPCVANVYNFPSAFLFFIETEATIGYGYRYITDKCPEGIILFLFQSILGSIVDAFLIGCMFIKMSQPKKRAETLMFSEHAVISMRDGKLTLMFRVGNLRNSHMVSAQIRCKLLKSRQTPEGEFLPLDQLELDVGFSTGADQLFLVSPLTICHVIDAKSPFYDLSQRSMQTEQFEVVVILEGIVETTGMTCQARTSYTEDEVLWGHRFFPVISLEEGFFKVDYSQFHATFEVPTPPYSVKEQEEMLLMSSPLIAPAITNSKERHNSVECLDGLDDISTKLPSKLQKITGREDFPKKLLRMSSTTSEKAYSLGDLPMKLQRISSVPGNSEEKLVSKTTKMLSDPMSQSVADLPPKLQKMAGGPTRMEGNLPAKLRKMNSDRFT
T1 sequence (P48548 1-419): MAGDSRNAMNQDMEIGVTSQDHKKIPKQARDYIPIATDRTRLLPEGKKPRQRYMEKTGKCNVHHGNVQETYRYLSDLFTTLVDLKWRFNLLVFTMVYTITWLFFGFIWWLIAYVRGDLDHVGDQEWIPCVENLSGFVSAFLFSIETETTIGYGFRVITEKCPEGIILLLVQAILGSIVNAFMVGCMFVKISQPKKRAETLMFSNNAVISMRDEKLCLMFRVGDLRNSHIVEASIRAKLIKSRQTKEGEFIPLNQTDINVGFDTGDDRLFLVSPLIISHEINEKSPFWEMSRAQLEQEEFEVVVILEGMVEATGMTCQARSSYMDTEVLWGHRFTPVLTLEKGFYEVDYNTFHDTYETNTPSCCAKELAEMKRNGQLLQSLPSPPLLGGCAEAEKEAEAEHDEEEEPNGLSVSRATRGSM
In words: Kir3.1/3.4 Q-patch Method (automated patch clamp, Sophion Q-patch). In kind it is cell-based. As to conditions: HEK293 cells stably-expressing Kir3.1/3.4; current at -120 mV; QPatch-16 or QPatch-48. The protocol:
For automated patch-clamp studies using the Sophion Q-patch, accumulative concentration-responses experiments were conducted to determine compound activity against the ion channel target. Voltage-clamp experiments were performed using HEK293 cells stably-expressing Kir3.1/3.4 using either a QPatch-16 or QPatch-48 (Sophion Bioscience A/S). A voltage waveform (VHold−20 mV, step to 60 mV for 100 ms, ramp to −120 mV over 500 ms, hold at −120 mV for 100 ms before returning to VHold) was repeatedly applied to the cells under voltage-clamp at a frequency of 0.1 Hz to elicit Kir3.1/3.4 currents. Mean current at −120 mV was measured in the absence (Icontrol) and presence of drug (IDrug). Assessment of passive leak was performed by removal of external potassium (IZero). Leak current was subtracted from control and drug recordings. Current inhibition (%) was calculated as {1−[(IDrug−IZero)/(IControl−IZero)]}*100. Data were fitted with a sigmoidal function to yield an IC50 and Hill coefficient. Composition of external experimental buffer was (in mM): 40 NaCl, 100 KCl, 5 CaCl2, 1 MgCl2, 10 HEPES pH 7.4. Composition of internal solution was (in mM). 40 K-gluconate, 60 KF, 20 NaCl, 5 Mg-ATP, 0.9 GTPgS, 20 EGTA, pH 7.2. Compounds were formulated in DMSO and diluted in buffer to give a final drug concentration of between […] and a final DMSO concentration of 0.1-0.3%.
Turning to `COc1ccccc1-c1csc2nc(N3CCCC(C(N)=O)C3)nc(N3C4CCC3CC(OC)C4)c12` (stereo not shown) [Example 390, 1-[4-(3-methoxy-8-azabicyclo[3.2.1]octan-8-yl)-5-(2-methoxyphenyl)thieno[2,3-d]pyrimidin-2-yl]piperidine-3-carboxamide], the IC50 was in the range of 500 to 3000 nM. For the compound `COC1CC2CCC(C1)N2c1nc(N2CCCC(C(N)=O)C2)nc2scc(-c3ccccc3Cl)c12` (stereo not shown) [Example 373, 1-[5-(2-chlorophenyl)-4-(3-methoxy-8-azabicyclo[3.2.1]octan-8-yl)thieno[2,3-d]pyrimidin-2-yl]piperidine-3-carboxamide], the IC50 was less than 500 nM. The compound `COc1ccccc1-c1csc2nc(N3C4CCC3CC(CO)C4)nc(N3C4CCC3CC(OC)C4)c12` (stereo not shown) [Example 371, [8-[4-(3-methoxy-8-azabicyclo[3.2.1]octan-8-yl)-5-(2-methoxyphenyl)thieno[2,3-d]pyrimidin-2-yl]-8-azabicyclo[3.2.1]octan-3-yl]methanol] returned an IC50 of 500 to 3000 nM. Then `COc1ccccc1-c1csc2nc(N3C4CCC3CC(OC)C4)nc(N3C4CCC3CC(OC)C4)c12` (stereo not shown) [Example 407, 2,4-bis(3-methoxy-8-azabicyclo[3.2.1]octan-8-yl)-5-(2-methoxyphenyl)thieno[2,3-d]pyrimidine], with 500 to 3000 nM. Turning to `COc1ccccc1-c1csc2nc(N3C4CCC3CC(O)C4)nc(N3C4CCC3COC4)c12` (stereo not shown) [Example 400, 8-[5-(2-methoxyphenyl)-4-(3-oxa-8-azabicyclo[3.2.1]octan-8-yl)thieno[2,3-d]pyrimidin-2-yl]-8-azabicyclo[3.2.1]octan-3-ol], the IC50 was 500 to 3000 nM.

In turn, `COCC1CC2CCC(C1)N2c1nc(N2CCC(C(N)=O)C2)nc2scc(-c3ccccc3OC)c12` (stereo not shown) [Example 376, 1-[4-[3-(methoxymethyl)-8-azabicyclo[3.2.1]octan-8-yl]-5-(2-methoxyphenyl)thieno[2,3-d]pyrimidin-2-yl]pyrrolidine-3-carboxamide] registered an IC50 of 500 to 3000 nM. For `O=C1CN(c2nc(N3C4CCC3COC4)c3c(-c4ccccc4Cl)csc3n2)CCN1` [Example 424, 4-[5-(2-chlorophenyl)-4-(3-oxa-8-azabicyclo[3.2.1]octan-8-yl)thieno[2,3-d]pyrimidin-2-yl]piperazin-2-one], the IC50 was less than 500 nM. As for `OC1CCN(c2nc(N3C4CCC3COC4)c3c(-c4ccccc4Cl)csc3n2)C1` (stereo not shown) [Example 426, 1-[5-(2-chlorophenyl)-4-(3-oxa-8-azabicyclo[3.2.1]octan-8-yl)thieno[2,3-d]pyrimidin-2-yl]pyrrolidin-3-ol], the IC50 is less than 500 nM.

`NC(=O)C1CCN(c2nc(N3C4CCC3CC(O)C4)nc3scc(-c4ccccc4Cl)c23)C1` (stereo not shown) [Example 412, 1-[5-(2-chlorophenyl)-2-(3-hydroxy-8-azabicyclo[3.2.1]octan-8-yl)thieno[2,3-d]pyrimidin-4-yl]pyrrolidine-3-carboxamide] came in with an IC50 of 500 to 3000 nM. `NC(=O)C1CN(c2nc(N3C4CCC3COC4)c3c(-c4ccccc4Cl)csc3n2)CCN1` (stereo not shown) [Example 416, 4-[5-(2-chlorophenyl)-4-(3-oxa-8-azabicyclo[3.2.1]octan-8-yl)thieno[2,3-d]pyrimidin-2-yl]piperazine-2-carboxamide] had an IC50 of less than 500 nM.

`COC1CC2CCC(C1)N2c1nc(N2CCNC(=O)C2)nc2scc(-c3ccccc3Cl)c12` (stereo not shown) [Example 391, 4-[5-(2-chlorophenyl)-4-(3-methoxy-8-azabicyclo[3.2.1]octan-8-yl)thieno[2,3-d]pyrimidin-2-yl]piperazin-2-one] yielded a concentration for half-maximal inhibition (IC50) of 500 to 3000 nM.

In turn, `COc1ccccc1-c1csc2nc(C#N)nc(N3C4CCC3CC(OC)C4)c12` (stereo not shown) [Example 405, 4-(3-methoxy-8-azabicyclo[3.2.1]octan-8-yl)-5-(2-methoxyphenyl)thieno[2,3-d]pyrimidine-2-carbonitrile] came in with an IC50 of 500 to 3000 nM. `NC(=O)C1CN(c2nc(N3C4CCC3COC4)nc3scc(-c4ccccc4Cl)c23)CCN1` (stereo not shown) [Example 417, 4-[5-(2-chlorophenyl)-2-(3-oxa-8-azabicyclo[3.2.1]octan-8-yl)thieno[2,3-d]pyrimidin-4-yl]piperazine-2-carboxamide] registered a 50% inhibitory concentration (IC50) of 500 to 3000 nM.
